Measured values as given in ChEMBL document CHEMBL5321224, “Antimicrobial peptides: Structure, mechanism, and modification” (2023).
The source made the active and inactive calls. The calls are words filed in the database; no cut-off is given here. Non-standard residues stand in square brackets, D forms with d. Residues, ends and D or L forms follow the SMILES beside them. βAla = NCCC(=O)O

What was measured:
Format in all cases: functional
[1] = test system: Escherichia coli; assay: Antimicrobial activity against Escherichia coli assessed as reduction of microbial growth incubated overnight
[2] = test system: Pseudomonas aeruginosa; assay: Antimicrobial activity against Pseudomonas aeruginosa assessed as reduction of microbial growth incubated overnight
[3] = test system: Staphylococcus aureus; assay: Antimicrobial activity against Staphylococcus aureus assessed as reduction of microbial growth incubated overnight
[4] = test system: Staphylococcus aureus; assay: Antimicrobial activity against Staphylococcus aureus assessed as reduction of microbial growth incubated for 24 hrs
[5] = test system: Escherichia coli; assay: Antimicrobial activity against Escherichia coli assessed as reduction of microbial growth incubated for 24 hrs
[6] = test system: Pseudomonas aeruginosa; assay: Antimicrobial activity against Pseudomonas aeruginosa assessed as reduction of microbial growth incubated for 24 hrs
[7] = test system: Escherichia coli; assay: Antimicrobial activity against Escherichia coli assessed as reduction of microbial growth incubated for 6 to 9 hr by macrodilution method; settings: time 6-9 hrs
[8] = test system: Pseudomonas aeruginosa; assay: Antimicrobial activity against Pseudomonas aeruginosa assessed as reduction of microbial growth incubated for 6 to 9 hr by macrodilution method; settings: time 6-9 hrs
[9] = test system: Staphylococcus aureus; assay: Antimicrobial activity against Staphylococcus aureus assessed as reduction of microbial growth incubated for 6 to 9 hr by macrodilution method; settings: time 6-9 hrs
[10] = test system: Escherichia coli; assay: Antimicrobial activity against Escherichia coli assessed as reduction of microbial growth
[11] = test system: Pseudomonas aeruginosa; assay: Antimicrobial activity against Pseudomonas aeruginosa assessed as reduction of microbial growth
[12] = test system: Staphylococcus aureus; assay: Antimicrobial activity against Staphylococcus aureus assessed as reduction of microbial growth

Molecule	LD [1] [µM]	LD [2] [µM]	LD [3] [µM]	MIC [7] [µg/mL]	MIC [8] [µg/mL]	MIC [9] [µg/mL]	other results
CC[C@H](C)[C@H](NC(=O)CNC(=O)[C@@H]1CCCN1C(=O)CNC(=O)[C@H](C)NC(=O)[C@H](CCCCN)NC(=O)[C@@H](NC(=O)[C@@H](NC(=O)CNC(=O)[C@H](CC(=O)O)NC(=O)[C@H](CCCNC(=N)N)NC(=O)[C@@H](NC(=O)[C@H](CC(N)=O)NC(=O)[C@H](CCC(N)=O)NC(=O)CNC(=O)[C@@H](NC(=O)[C@H](CCCCN)NC(=O)[C@H](CCC(=O)O)NC(=O)[C@@H](NC(=O)[C@H](CCCCN)NC(=O)[C@H](CCCCN)NC(=O)[C@H](Cc1ccccc1)NC(=O)[C@H](CC(C)C)NC(=O)[C@H](CCCCN)NC(=O)[C@H](Cc1c[nH]c2ccccc12)NC(=O)[C@@H](N)CCCCN)[C@@H](C)CC)C(C)C)[C@@H](C)CC)[C@@H](C)CC)[C@@H](C)CC)C(=O)NCC(=O)N[C@@H](C)C(=O)N[C@H](C(=O)N[C@@H](CC(C)C)C(=O)N[C@@H](CCCCN)C(=O)N[C@H](C(=O)N[C@@H](CC(C)C)C(=O)N[C@H](C(=O)N[C@H](C(=O)NCC(=O)N[C@@H](CC(C)C)C(=O)O)[C@@H](C)O)[C@@H](C)O)C(C)C)C(C)C	0.3	1	6				
CC[C@H](C)[C@H](NC(=O)CN)C(=O)NCC(=O)N[C@@H](C)C(=O)N[C@H](C(=O)N[C@@H](CC(C)C)C(=O)N[C@@H](CCCCN)C(=O)N[C@H](C(=O)N[C@@H](CC(C)C)C(=O)N[C@H](C(=O)N[C@H](C(=O)NCC(=O)N[C@@H](CC(C)C)C(=O)N[C@@H](CCCCN)C(=O)N[C@@H](Cc1c[nH]c2ccccc12)C(=O)N[C@@H](CCCCN)C(=O)N[C@@H](CC(C)C)C(=O)N[C@@H](Cc1ccccc1)C(=O)N[C@@H](CCCCN)C(=O)N[C@@H](CCCCN)C(=O)N[C@H](C(=O)N[C@@H](CCC(=O)O)C(=O)N[C@@H](CCCCN)C(=O)N[C@H](C(=O)NCC(=O)N[C@@H](CCC(N)=O)C(=O)N[C@@H](CC(N)=O)C(=O)N[C@H](C(=O)N[C@@H](CCCNC(=N)N)C(=O)N[C@@H](CC(=O)O)C(=O)NCC(=O)N[C@H](C(=O)N[C@H](C(=O)N[C@@H](CCCCN)C(=O)N[C@@H](C)C(=O)O)[C@@H](C)CC)[C@@H](C)CC)[C@@H](C)CC)C(C)C)[C@@H](C)CC)[C@@H](C)O)[C@@H](C)O)C(C)C)C(C)C							LD [4]: 5 µM; LD [5]: 0.7 µM; LD [6]: 8 µM
CC[C@@H](C)[C@H](NC(=O)[C@@H](NC(=O)CNC(=O)[C@H](CC(=O)O)NC(=O)[C@H](CCCNC(=N)N)NC(=O)[C@@H](NC(=O)[C@H](CC(N)=O)NC(=O)[C@H](CCC(N)=O)NC(=O)CNC(=O)[C@@H](NC(=O)[C@H](CCCCN)NC(=O)[C@H](CCC(=O)O)NC(=O)[C@@H](NC(=O)[C@H](CCCCN)NC(=O)[C@H](CCCCN)NC(=O)[C@H](Cc1ccccc1)NC(=O)[C@H](CC(C)C)NC(=O)[C@H](CCCCN)NC(=O)[C@H](Cc1c[nH]c2ccccc12)NC(=O)[C@@H](N)CCCCN)[C@@H](C)CC)C(C)C)[C@@H](C)CC)[C@@H](C)CC)C(=O)N[C@@H](CCCCN)C(=O)N[C@@H](C)C(=O)NCC(=O)N1CCC[C@H]1C(=O)N[C@@H](C)C(=O)N[C@H](C(=O)N[C@@H](C)C(=O)N[C@H](C(=O)N[C@H](C(=O)NCC(=O)N[C@@H](CCC(N)=O)C(=O)N[C@@H](C)C(=O)N[C@H](C(=O)N[C@@H](CCC(N)=O)C(=O)N[C@H](C(=O)N[C@@H](C)C(=O)N[C@@H](CCCCN)C(=O)O)[C@@H](C)CC)[C@@H](C)O)C(C)C)C(C)C)C(C)C	0.2	2	>200				
CC[C@H](C)[C@H](NC(=O)CN)C(=O)NCC(=O)N[C@@H](C)C(=O)N[C@H](C(=O)N[C@@H](CC(C)C)C(=O)N[C@@H](CCCCN)C(=O)N[C@H](C(=O)N[C@@H](CC(C)C)C(=O)N[C@H](C(=O)N[C@H](C(=O)NCC(=O)N[C@@H](CC(C)C)C(=O)N[C@@H](CCCCN)C(=O)N[C@@H](Cc1c[nH]c2ccccc12)C(=O)N[C@@H](CCCCN)C(=O)N[C@@H](CC(C)C)C(=O)N[C@@H](Cc1ccccc1)C(=O)N[C@@H](CCCCN)C(=O)N[C@@H](CCCCN)C(=O)N[C@H](C(=O)N[C@@H](CCC(=O)O)C(=O)N[C@@H](CCCCN)C(=O)N[C@H](C(=O)NCC(=O)N[C@@H](CCC(N)=O)C(=O)O)C(C)C)[C@@H](C)CC)[C@@H](C)O)[C@@H](C)O)C(C)C)C(C)C	1	5	5				
CC[C@H](C)[C@H](NC(=O)[C@H](CCCCN)NC(=O)[C@H](CCCCN)NC(=O)[C@H](Cc1ccccc1)NC(=O)[C@H](CC(C)C)NC(=O)[C@H](CCCCN)NC(=O)[C@H](Cc1c[nH]c2ccccc12)NC(=O)[C@@H](N)CCCCN)C(=O)N[C@@H](CCC(=O)O)C(=O)N[C@@H](CCCCN)C(=O)N[C@H](C(=O)NCC(=O)N[C@@H](CCC(N)=O)C(=O)NCC(=O)N[C@@H](C(=O)NCC(=O)N[C@@H](C)C(=O)N[C@H](C(=O)N[C@@H](CC(C)C)C(=O)N[C@@H](CCCCN)C(=O)N[C@H](C(=O)N[C@@H](CC(C)C)C(=O)N[C@H](C(=O)N[C@H](C(=O)NCC(=O)N[C@@H](CC(C)C)C(=O)O)[C@@H](C)O)[C@@H](C)O)C(C)C)C(C)C)[C@@H](C)CC)C(C)C	0.5	1	2				
CC[C@H](C)[C@H](NC(=O)CN)C(=O)NCC(=O)N[C@@H](CCCCN)C(=O)N[C@@H](Cc1ccccc1)C(=O)N[C@@H](CC(C)C)C(=O)N[C@@H](Cc1c[nH]cn1)C(=O)N[C@@H](CO)C(=O)N[C@H](C)C(=O)N[C@@H](CCCCN)C(=O)N[C@@H](CCCCN)C(=O)N[C@@H](Cc1ccccc1)C(=O)N[C@H](C)C(=O)N[C@@H](CCCCN)C(=O)N[C@@H](C)C(=O)N[C@@H](Cc1ccccc1)C(=O)N[C@H](C(=O)N[C@H](C)C(=O)N[C@@H](CCC(=O)O)C(=O)N[C@H](C(=O)N[C@@H](CCSC)C(=O)N[C@@H](CC(N)=O)C(=O)N[C@@H](CO)C(N)=O)[C@@H](C)CC)C(C)C (H-GIGKFLHS[dA]KKF[dA]KAFV[dA]EIMNS-NH2)				> 100	> 100	> 100	
CC[C@H](C)[C@H](NC(=O)CNC(=O)CCN)C(=O)NCC(=O)N[C@@H](CCCCN)C(=O)N[C@@H](Cc1ccccc1)C(=O)N[C@@H](CC(C)C)C(=O)N[C@@H](Cc1c[nH]cn1)C(=O)N[C@@H](C)C(=O)N[C@@H](C)C(=O)N[C@@H](CCCCN)C(=O)N[C@@H](CCCCN)C(=O)N[C@@H](Cc1ccccc1)C(=O)N[C@@H](C)C(=O)N[C@@H](CCCCN)C(=O)N[C@@H](C)C(=O)N[C@@H](Cc1ccccc1)C(=O)N[C@H](C(=O)N[C@@H](C)C(=O)N[C@@H](CCC(=O)O)C(=O)N[C@H](C(=O)N[C@@H](CCSC)C(=O)N[C@@H](CC(N)=O)C(=O)N[C@@H](CO)C(N)=O)[C@@H](C)CC)C(C)C (H-[βAla]GIGKFLHAAKKFAKAFVAEIMNS-NH2)				5	50	5	
CC[C@H](C)[C@H](NC(=O)CN)C(=O)NCC(=O)N[C@@H](C)C(=O)N[C@H](C(=O)N[C@@H](CC(C)C)C(=O)N[C@@H](CCCCN)C(=O)N[C@H](C(=O)N[C@@H](CC(C)C)C(=O)N[C@H](C(=O)N[C@H](C(=O)NCC(=O)N[C@@H](CC(C)C)C(=O)N1CCC[C@H]1C(=O)N[C@@H](C)C(=O)N[C@@H](CC(C)C)C(=O)N[C@H](C(=O)N[C@@H](CO)C(=O)N[C@@H](Cc1c[nH]c2ccccc12)C(=O)N[C@H](C(=O)N[C@@H](CCCCN)C(=O)N[C@@H](CCCNC(=N)N)C(=O)N[C@@H](CCCCN)C(=O)N[C@@H](CCCNC(=N)N)C(=O)N[C@@H](CCC(N)=O)C(=O)N[C@@H](CCC(N)=O)C(N)=O)[C@@H](C)CC)[C@@H](C)CC)[C@@H](C)O)[C@@H](C)O)C(C)C)C(C)C [MELITTIN]	0.8	3	0.2				
Ac-GIGKFLHAAKKFAKAFVAEIMNS-NH2				25	> 100	25	
H-FLHSAKKFGKAFVGEIMNS-OH							MIC [10]: 200 µg/mL; MIC [11]: inactive; MIC [12]: inactive
H-GIGKFLHAAKKFAKAFVAEIMNS-NH2				2.5	25	10	
